Reference: PubChem BioAssay AID330 (DTP/NCI, 2004)
“And” between values parts separate entries of the source, which are not always exact repeats. Identical values can stand only once. Toxic doses and inconclusive results are not listed. The calls were made as follows: active = survival T/C of 150% or more; inactive = T/C below 125% in these data.

System: P388 leukemia ip, CD2F1 mice, survival T/C
Test: NCI In Vivo Anticancer Drug Screen. Data for tumor model P388 Leukemia (intraperitoneal) in CD2F1 (CDF1) mice
Conditions: endpoint: median survival time, higher = longer survival
Method in brief: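 Mice carrying the transplanted tumor received test compound or vehicle. Survival was recorded in each group, and the value is the treated-group measurement divided by that of the vehicle-treated control group.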

[1] = dose: 6.25 mg/kg/injection, schedule: Q01DX009 (ip), vehicle: saline
[2] = dose: 12.5 mg/kg/injection, schedule: Q01DX009 (ip), vehicle: saline
[3] = dose: 25.0 mg/kg/injection, schedule: Q01DX009 (ip), vehicle: saline
[4] = dose: 50.0 mg/kg/injection, schedule: Q01DX009 (ip), vehicle: saline
[5] = dose: 100.0 mg/kg/injection, schedule: Q01DX009 (ip), vehicle: saline
[6] = dose: 200.0 mg/kg/injection, schedule: Q01DX009 (ip), vehicle: saline

Measured: T/C

Cc1ccc(C2(C)C(=O)c3ccccc3C2=O)cc1
inactive: dose: 100.0 mg/kg/injection, schedule: Q04DX002 (ip), vehicle: saline 101 % of control | dose: 200.0 mg/kg/injection, schedule: Q04DX002 (ip), vehicle: saline 100 % of control | dose: 400.0 mg/kg/injection, schedule: Q04DX002 (ip), vehicle: saline 107 % of control

CC(=O)C1(c2ccccc2)CCN(c2c3ccccc3nc3ccccc23)CC1
inactive: dose: 100.0 mg/kg/injection, schedule: Q04DX003 (ip), vehicle: Klucel (hydroxypropylcellulose) (HPC) 108 % of control | dose: 200.0 mg/kg/injection, schedule: Q04DX003 (ip), vehicle: Klucel (hydroxypropylcellulose) (HPC) 111 % of control

CCOC(=O)C(=O)Nc1ccc2cc(OC)ccc2c1C#N
inactive: [1] 94 % of control | [2] 94 % of control | [3] 91 % of control | [4] 99 % of control | [5] 106 % of control | [6] 106 % of control

OCCCN1CCN(CCCO)CC1
inactive: [2] 103 % of control and 96 % of control | [3] 97 % of control and 98 % of control | [4] 92 % of control and 97 % of control | [5] 101 % of control and 95 % of control | [6] 100 % of control and 106 % of control | dose: 400.0 mg/kg/injection, schedule: Q01DX009 (ip), vehicle: saline 103 % of control and 91 % of control

Cc1ccc2c(c1)CN(C13CC4CC(CC(C4)C1)C3)CO2
inactive: dose: 66.0 mg/kg/injection, schedule: Q04DX003 (ip), vehicle: saline with Tween-80 95 % of control | dose: 100.0 mg/kg/injection, schedule: Q04DX003 (ip), vehicle: saline with Tween-80 100 % of control | dose: 150.0 mg/kg/injection, schedule: Q04DX003 (ip), vehicle: saline with Tween-80 100 % of control | dose: 200.0 mg/kg/injection, schedule: Q04DX003 (ip), vehicle: saline with Tween-80 105 % of control | dose: 400.0 mg/kg/injection, schedule: Q04DX003 (ip), vehicle: saline with Tween-80 115 % of control

O=c1[nH]cc(F)c(=O)[nH]1
active: [1] 163 % of control | dose: 7.5 mg/kg/injection, schedule: Q01DX009 (ip), vehicle: saline 167 % of control and 172 % of control | dose: 7.5 mg/kg/injection, schedule: Q03HX024 (ip), vehicle: saline 201 % of control | dose: 9.0 mg/kg/injection, schedule: Q01DX009 (ip), vehicle: saline 159 % of control | dose: 10.0 mg/kg/injection, schedule: Q03HX024 (ip), vehicle: saline 228 % of control | dose: 12.0 mg/kg/injection, schedule: Q01DX009 (ip), vehicle: saline 153 % of control and 166 % of control | dose: 12.5 mg/kg/injection, schedule: Q01DX005 (ip), vehicle: saline 167 % of control and 176 % of control | [2] 166 % of control | dose: 13.2 mg/kg/injection, schedule: Q01DX009 (ip), vehicle: saline 182 % of control and 213 % of control | dose: 13.2 mg/kg/injection, schedule: Q01DX009 (ip), vehicle: water 200 % of control | dose: 13.3 mg/kg/injection, schedule: Q01DX009 (ip), vehicle: saline sonified 165 % of control and 181 % of control and 200 % of control | dose: 15.0 mg/kg/injection, schedule: Q03HX024 (ip), vehicle: saline 257 % of control | dose: 16.0 mg/kg/injection, schedule: Q01DX009 (ip), vehicle: saline 212 % of control | dose: 18.0 mg/kg/injection, schedule: Q01DX009 (ip), vehicle: saline 166 % of control | dose: 19.0 mg/kg/injection, schedule: Q01DX009 (ip), vehicle: saline 170 % of control | dose: 27.0 mg/kg/injection, schedule: Q04DX003 (ip), vehicle: saline 158 % of control | dose: 28.8 mg/kg/injection, schedule: Q01DX005 (ip), vehicle: saline 158 % of control | dose: 30.0 mg/kg/injection, schedule: Q03DX003 (ip), vehicle: saline 162 % of control | dose: 40.0 mg/kg/injection, schedule: Q03DX003 (ip), vehicle: saline 165 % of control | dose: 50.0 mg/kg/injection, schedule: Q03DX003 (ip), vehicle: saline 168 % of control | dose: 50.0 mg/kg/injection, schedule: Q04DX002 (ip), vehicle: saline 154 % of control | dose: 54.0 mg/kg/injection, schedule: Q04DX003 (ip), vehicle: saline 159 % of control | dose: 60.0 mg/kg/injection, schedule: Q04DX003 (ip), vehicle: water 170 % of control | dose: 75.0 mg/kg/injection, schedule: Q04DX003 (ip), vehicle: saline 185 % of control and 192 % of control and 199 % of control | dose: 100.0 mg/kg/injection, schedule: Q01DX001 (iv), vehicle: saline 164 % of control | dose: 133.3 mg/kg/injection, schedule: Q01DX001 (ip), vehicle: saline 337 % of control
119 % of control and 223 % of control: dose: 24.0 mg/kg/injection, schedule: Q01DX009 (ip), vehicle: saline
inactive: dose: 7.5 mg/kg/injection, schedule: Q01DX009 (oral), vehicle: clinical formulation 107 % of control | dose: 7.5 mg/kg/injection, schedule: Q04DX003 (iv), vehicle: saline 107 % of control | dose: 7.8 mg/kg/injection, schedule: Q04DX003 (ip), vehicle: saline 99 % of control | dose: 10.0 mg/kg/injection, schedule: Q04DX002 (ip), vehicle: saline 123 % of control | dose: 13.0 mg/kg/injection, schedule: Q04DX002 (ip), vehicle: saline 106 % of control | dose: 15.0 mg/kg/injection, schedule: Q04DX003 (iv), vehicle: saline 109 % of control | dose: 20.0 mg/kg/injection, schedule: Q01DX009 (ip), vehicle: water 118 % of control | dose: 21.6 mg/kg/injection, schedule: Q04DX002 (ip), vehicle: saline 97 % of control | dose: 22.5 mg/kg/injection, schedule: Q03HX024 (ip), vehicle: saline 118 % of control | dose: 25.0 mg/kg/injection, schedule: Q01DX001 (iv), vehicle: saline 120 % of control | dose: 27.0 mg/kg/injection, schedule: Q01DX009 (ip), vehicle: water 97 % of control | dose: 28.0 mg/kg/injection, schedule: Q01DX009 (ip), vehicle: saline 101 % of control | dose: 30.0 mg/kg/injection, schedule: Q04DX003 (iv), vehicle: saline 124 % of control | dose: 36.0 mg/kg/injection, schedule: Q01DX009 (ip), vehicle: saline 100 % of control | dose: 36.0 mg/kg/injection, schedule: Q04DX002 (ip), vehicle: saline 112 % of control | dose: 45.0 mg/kg/injection, schedule: Q01DX009 (ip), vehicle: saline 99 % of control | dose: 48.0 mg/kg/injection, schedule: Q01DX005 (ip), vehicle: saline 109 % of control | dose: 50.0 mg/kg/injection, schedule: Q01DX001 (ip), vehicle: saline 119 % of control | dose: 50.0 mg/kg/injection, schedule: Q01DX005 (ip), vehicle: saline 112 % of control | dose: 60.0 mg/kg/injection, schedule: Q01DX009 (oral), vehicle: clinical formulation 94 % of control | dose: 60.0 mg/kg/injection, schedule: Q03DX003 (ip), vehicle: saline 99 % of control | dose: 60.0 mg/kg/injection, schedule: Q04DX003 (iv), vehicle: saline 122 % of control | dose: 66.0 mg/kg/injection, schedule: Q01DX001 (ip), vehicle: saline 120 % of control | dose: 75.0 mg/kg/injection, schedule: Q01DX005 (ip), vehicle: saline 99 % of control | dose: 88.0 mg/kg/injection, schedule: Q01DX001 (ip), vehicle: saline 115 % of control | dose: 90.0 mg/kg/injection, schedule: Q04DX003 (ip), vehicle: saline sonified 108 % of control | dose: 120.0 mg/kg/injection, schedule: Q01DX005 (ip), vehicle: saline 91 % of control | dose: 120.0 mg/kg/injection, schedule: Q01DX009 (ip), vehicle: saline 83 % of control | dose: 120.0 mg/kg/injection, schedule: Q04DX003 (iv), vehicle: saline 87 % of control | dose: 125.0 mg/kg/injection, schedule: Q04DX003 (ip), vehicle: saline 109 % of control | dose: 135.0 mg/kg/injection, schedule: Q04DX003 (ip), vehicle: saline 98 % of control | dose: 166.7 mg/kg/injection, schedule: Q04DX003 (ip), vehicle: saline 79 % of control and 81 % of control | dose: 400.0 mg/kg/injection, schedule: Q01DX001 (iv), vehicle: saline 100 % of control

CC[C@H]1C[C@H]2CN(CCc3c([nH]c4ccccc34)[C@@](C(=O)OC)(c3cc4c(cc3OC)N(C=O)[C@H]3[C@@](O)(C(=O)OC)[C@H](OC(C)=O)[C@]5(CC)CCCN6CC[C@]43[C@@H]65)C2)C1
inactive: dose: 0.5 mg/kg/injection, schedule: Q01DX001 (ip), vehicle: water 109 % of control | dose: 1.0 mg/kg/injection, schedule: Q01DX001 (ip), vehicle: water 107 % of control | dose: 8.0 mg/kg/injection, schedule: Q01DX001 (ip), vehicle: water 119 % of control
